According to article PMC11683478, “Bioprospecting of culturable marine biofilm bacteria for novel antimicrobial peptides” (iMeta, 2024):

Assays:
Experiment in all cases: Antibacterial screen at 200 μg/mL (cell density vs control)
Assay type in all cases: cell-based
Conditions in all cases: peptide 200 μg/mL, CAMHB, 5 × 10^5 CFU/mL, 37°C, 12 h, OD600; control (no AMP) = 1; three biological replicates
[1] = test system: Acinetobacter baumannii ATCC 19606
Method: (§1) Eight bacterial strains were utilized in the antibacterial experiment. S. aureus ATCC 12600, B. subtilis ATCC 23857, E. coli ATCC 11775, and A. baumannii ATCC 19606 were purchased from Shanghai Beinuo Biology. M. luteus ATCC 4698 and S. bongori ATCC43975 were purchased from Shanghai Beisi Biotechnology. V. owensii ems001 and V. alginolyticus xv22 from the intestines of diseased shrimps were isolated in our laboratory. All strains were cultured in the cation‐adjusted Mueller‐Hinton broth (CAMHB) at 37°C to the logarithmic growth phase (OD600 = 0.5). Then, bacteria were gradient‐diluted using fresh CAMHB to a bacterial density of 5 × 10^5 CFU/mL. Antibacterial experiments were performed in a 96‐well plate with 200 μg/mL final peptide concentration. Four experimental groups were set up, including a blank control (200 μL CAMHB), a negative control (180 μL CAMHB plus 20 μL peptide), a positive control (180 μL bacterial culture plus 20 μL ultrapure water), and an experimental group (180 μL bacterial culture plus 20 μL peptide). Three biological replicates were conducted for each group, and OD600 values were measured after incubation at 37°C for 12 h. Every observed value was removed from the blank control group value. The value of the experimental group was then subtracted from the value of the negative control group therefore eradicating the effect of the peptide on the OD measurement. Student's t‐test allowed the estimation of a notable variation between the experimental and positive groups using a p‐value of 0.05 as the limit. […] The MIC of a peptide against a bacterium was determined as the minimum peptide concentration at which there was no visible bacterial growth.

[2] = test system: Micrococcus luteus ATCC 4698
Method: as §1

[3] = test system: Bacillus subtilis ATCC 23857
Method: as §1

[4] = test system: Salmonella bongori ATCC 43975
Method: as §1

[5] = test system: Escherichia coli ATCC 11775
Method: as §1

Vibrio owensii ems001 = test system: Vibrio owensii ems001
Method: as §1

[6] = test system: Staphylococcus aureus ATCC 12600
Method: as §1

[7] = test system: Vibrio alginolyticus xv22
Method: as §1

Row | Sequence | cell density relative to control, A. baumannii ATCC 19606 [1] | cell density relative to control, M. luteus ATCC 4698 [2] | cell density relative to control, B. subtilis ATCC 23857 [3] | cell density relative to control, S. bongori ATCC 43975 [4] | cell density relative to control, E. coli ATCC 11775 [5] | cell density relative to control, V. owensii ems001 (Vibrio owensii ems001) | cell density relative to control, S. aureus ATCC 12600 [6] | cell density relative to control, V. alginolyticus xv22 [7]
1 | MGAVCRMGSLPCLIPRGAIRLG [Cand-198, chemically synthesized candidate AMP predicted from marine biofilm bacteria] | 0.765 | 1 | 1 | 0.827 | 0.844 | 0.904 | 0.817 | 0.891
2 | MWTVRPRICAARGRL [Cand-172, chemically synthesized candidate AMP predicted from marine biofilm bacteria] | 1 | 0.9 | 0 | 0.898 | 1 | 0 | 0 | 0
3 | MWTIYSGIKRSLHYCRRRGYYCSRYGYYS [Cand-43, chemically synthesized candidate AMP predicted from marine biofilm bacteria] | 0.385 | 0.297 | 0.67 | 0 | 0 | 0.215 | 0.031 | 0.124
4 | MCALKWFCKSLIRALNKAT [Cand-68, chemically synthesized candidate AMP predicted from marine biofilm bacteria] | 0 | 0.001 | 0 | 0.024 | 0 | 0 | 0 | 0.012
5 | MCRFKCKVRTTITRPVCCWLIFM [Cand-168, chemically synthesized candidate AMP predicted from marine biofilm bacteria] | 1 | 1 | 0 | 0.482 | 0.553 | 0 | 1 | 0.418
6 | MRKGCKLIPCICDVNCRRRTG [Cand-8, chemically synthesized candidate AMP predicted from marine biofilm bacteria] | 0.201 | 0 | 0.257 | 0 | 0 | 0.653 | 0.364 | 0.286
7 | MCCVGRGVSFLRTRKCFIKS [Cand-161, chemically synthesized candidate AMP predicted from marine biofilm bacteria] | 0.543 | 0.788 | 0 | 0.12 | 0 | 0 | 0.001 | 0
8 | MLRRIGRMWRKLHPHGQ [Cand-10, chemically synthesized candidate AMP predicted from marine biofilm bacteria] | 0.009 | 0.001 | 0.032 | 0.009 | 0.001 | 0.041 | 0.007 | 0.001
9 | MWWSKSIHQACFTRYRGYCRWCCTFSIRSCRY [Cand-3, chemically synthesized candidate AMP predicted from marine biofilm bacteria] | 0.702 | 1 | 1 | 0.438 | 0.786 | 0 | 0 | 0
10 | MFSKLVKVLLKALCHVFMKCTFW [Cand-61, chemically synthesized candidate AMP predicted from marine biofilm bacteria] | 0.884 | 1 | 0 | 0.633 | 1 | 0.001 | 0 | 1
11 | MRPSMCRIGGRL [Cand-38, chemically synthesized candidate AMP predicted from marine biofilm bacteria] | 0.836 | 1 | 0.805 | 1 | 0.861 | 1 | 0.771 | 1
12 | MCTSKKKVWRCVAPS [Cand-33, chemically synthesized candidate AMP predicted from marine biofilm bacteria] | 0.813 | 1 | 0.601 | 1 | 0.96 | 1 | 0.874 | 0.879
13 | MGPHWRGPRWGRVGCWNL [Cand-154, chemically synthesized candidate AMP predicted from marine biofilm bacteria] | 1 | 0.814 | 0 | 0.544 | 0.622 | 0.004 | 0.038 | 0.077
14 | MRPRLRKRLLR [Cand-187, chemically synthesized candidate AMP predicted from marine biofilm bacteria] | 0.766 | 0.703 | 0.002 | 0.256 | 0.674 | 1 | 0.68 | 0.84
15 | MTWPSRSRMWRTC [Cand-129, chemically synthesized candidate AMP predicted from marine biofilm bacteria] | 1 | 0.751 | 0.061 | 0.704 | 0.692 | 0.021 | 0.012 | 0.004
